Test results published in patent US7371834B2, “Apoptosis-inducing factor” (Amgen Inc., priority 1998, dated 2008).
Peptide text beside a SMILES is read from it. * marks the point of attachment. Cbz = O=C(OCc1ccccc1)*; CH2F = FC*

What was measured:
HeLa nuclei = test: Pulse field gel electrophoresis of DNA from AIF-treated HeLa nuclei; type: biochemical; conditions: 90 min with 100 ng AIF; 200 μM p-chloromercuryphenylsulfonic acid, 200 μM Z-VAD.fmk, 5 mM EDTA
Method: In addition, each nuclear preparation was assessed for the frequency of hypoploid nuclei as in A.
(§1) 2B4.11 T cell hybridoma cells stably transfected with a SFFV.neo vector containing the human bcl-2 gene or the neomycin resistance gene (Neo) only [Susin et al., J. Exp. Med. 184:1331-1342 (1996)] were subjected to mechanical lysis and differential centrifugation for the subsequent recovery of nuclei, mitochondria, and organelle-free cytosols [Liu et al. Cell 86:147-157 (1996)]. Submitochondrial fractionation of mouse liver mitochondria was controlled by the determination of suitable marker enzymes [Susin et al., J. Exp. Med. 186:25-37 (1997); Pedersen et al., Meth. Cell Biol. 20:411-481 (1978)]. Purified HeLa cell nuclei were exposed to different preparations of AIF, and nuclear apoptosis was quantitated by staining with DNA-intercalating propidium iodide and cytofluorometric determination of DNA content [Susin et al., J. Exp. Med. 186:25-37 (1997)]. Alternatively, nuclei were stained with Hoechst 33342 dye or subjected to DNA extraction and pulse field gel electrophoresis. […] The release of cytochrome c and caspase-9 into the supernatant was measured by immunoblot using a monoclonal anti-cytochrome c antibody (7H8.2C12, Pharmingen), or a rabbit antibody directed against the large subunit of caspase-9 (Hazelton Research Products Inc., Denver, Pa.).

[1] = test system: purified rat liver mitochondria; test: Large amplitude swelling of purified mitochondria; type: biochemical; conditions: Z-VAD.fmk 100-200 μM
Method: Purified rat liver mitochondria were monitored continuously for large amplitude swelling. Arrows indicate the addition of Ca^2+(200 μM; positive control), AIF (100 ng/ml), cytosol (100 μg protein per ml), and/or Z-VAD.fmk (100 μM, pre-added to the cytosol/AIF mixture). Note that only the combined addition of AIF plus cytosol (right panel) causes mitochondrial swelling.
as §1, with “Submitochondrial fractionation of mouse liver mitochondria was controlled by the determination of suitable marker enzymes [Susin et al., J. Exp. Med. 186:25-37 (1997); Pedersen et al., Meth. Cell Biol. 20:411-481 (1978)].” left out, “(1997)].” for “(1997)]. Alternatively, nuclei were stained with Hoechst 33342 dye or subjected to DNA extraction and pulse field gel electrophoresis.”

caspase = test: Cleavage of caspase substrate by mitochondrial supernatants; type: biochemical
Method: The same mitochondrial supernatants as in FIG. 3F were tested for their capacity to cleave the caspase substrate Z-VAD.afc, leading to the generation of the fluorochrome afc. The 100% value refers to the enzymatic activity obtained by osmotic lysis of mitochondria

Rat-1 cells [2] = test: Microinjection into the cytoplasm of Rat-1 cells, quantitation of apoptosis; type: cell-based; conditions: 100 μM Z-VAD.fmk
Method: FIGS. 4A-4D show the effects of AIF on intact cells. […] Buffer only or recombinant AIF (10 μM) were injected into the cytoplasm of Rat-1 cells, which were cultured for 90 min in the absence or presence of 100 μM Z-VAD.fmk (added 15 min before injection). Microinjected cells could be identified because the injectate contained FITC-dextran (green fluorescence not shown). Representative (three independent experiments, 100-200 microinjected cells per session) microphotographs of viable cells stained with the DYm-sensitive dye CMXRos and Hoechst 33342 (as in FIG. 2E., upper panels) or Annexin-V, which labels surface-exposed phosphatidylserine residues (red fluorescence in lower panels).
(§2) Rat-1 fibroblast cells were microinjected (pressure 150 hPa; 0.2 sec; Marzo et al., Science 281:2027-2031 (1998)) with buffer only, atractyloside (50 μM), dialyzed antisera, AIF-derived peptides (100 μM), horse cytochrome c (Sigma), or the indicated dose of recombinant mAIF. The caspase inhibitor Z-VAD.fmk (100 μM; Bachem, Basel Switzerland) was added to the culture medium 30 min before microinjection into the cytoplasm (pressure 150 hPa; 0.2 sec). […] Microinjected viable cells (100-200 per session, two to three independent sessions of injection) were identified by inclusion of 0.25% (w:v) FITC-dextran (green fluorescence) in the injectate. Only the blue or red fluorescence was recorded. […]

isolated mitochondria = test: Release of cytochrome c and caspase-9 from isolated mitochondria (immunoblot of supernatants); type: biochemical, rat; conditions: rec. AIF+cytosol+Z-VAD.fmk
Method: Isolated mitochondria were subjected to osmotic lysis (1) or treated as in A (15 min) with buffer only (2), rec. AIF (3), cytosol (4), rec. AIF+cytosol (5), or rec. AIF+cytosol+Z-VAD.fmk (6) and their supernatants were subjected to immunoblot analysis of cytochrome c and caspase-9.
as §1, with “Cell Biol. 20:411-481 (1978)].” left out, “(1997)].” for “(1997)]. Alternatively, nuclei were stained with Hoechst 33342 dye or subjected to DNA extraction and pulse field gel electrophoresis.”

Rat-1 cells [3] = test: Microinjection of anti-AIF antiserum into Rat-1 cells treated with atractyloside or staurosporin; type: cell-based; conditions: for retention of DYm-sensitive dye CMXRos by cells: atractyloside 50 μM injected, staurosporin 1 μM, 120 min
Method: Rat-1 cells were microinjected with atractyloside (ATR, 50 μM) alone, or atractyloside diluted in control serum, anti-AIF antiserum, and/or 100 μM AIF-derived immunogenic peptides. 180 min after microinjection, cells were stained with Hoechst 33342 and CMXRos (as in FIG. 4A, upper panel). Alternatively, cells were cultured for 120 min with staurosporin (1 μM, as in FIGS. 2C-2E), added to the culture medium after microinjection of control antiserum or anti-AIF.
Rat-1 fibroblast cells were microinjected (pressure 150 hPa; 0.2 sec; Marzo et al., Science 281:2027-2031 (1998)) with buffer only, atractyloside (50 μM), dialyzed antisera, AIF-derived peptides (100 μM), horse cytochrome c (Sigma), or the indicated dose of recombinant mAIF. The caspase inhibitor Z-VAD.fmk (100 μM; Bachem, Basel Switzerland) was added to the culture medium 30 min before microinjection into the cytoplasm (pressure 150 hPa; 0.2 sec). […] Microinjected viable cells (100-200 per session, two to three independent sessions of injection) were identified by inclusion of 0.25% (w:v) FITC-dextran (green fluorescence) in the injectate. Only the blue or red fluorescence was recorded. Transfection of Jurkat T lymphoma cells was performed using AIF cloned in pcDNA3.1 (Invitrogen) vector and Lipofectamine® (Gibco Life Technologies). Cytofluorometric analyses of apoptosis-associated parameters were performed as described [Kroemer et al., “Detection of apoptosis and apoptosis associated alterations,” “The Immunology Methods Manual” (Lefkovitz, R. Ed.); Academic Press, Chapter 14.2., pp. 1111-1125 (1997)].

mouse liver mitochondria = test: AIF liberation from mitochondria by PT pore opening (Western blot of supernatants); type: biochemical; conditions: 5 mM atractyloside, 200 μM Ca2+
Method: FIGS. 2A-2F show the submitochondrial and subcellular distribution of AIF in normal and apoptotic cells. […] Western blots were performed on total mouse liver mitochondrion lysate (1), proteins from the matrix (2), inner membrane (3), intermembrane space (4), outer membrane (5), the supernatant of untreated mitochondria (6), or that of mitochondria treated with 5 mM atractyloside (7), 200 μM Ca^2+ (8), 1 μM cyclosporin A (9), atractyloside+CsA (10), or Ca^2++cyclosporin A (11). In addition, the supernatant of atractyloside-treated mitochondria was sham-immunodepleted using a pre-immune serum (12), or AIF-immunodepleted in the absence (13) or presence (14) of AIF-derived immunogenic peptides (see Example 2, below) capable of blocking the AIF antiserum. Aliquots of each preparation were tested for their capacity to induce nuclear hypoploidy in isolated HeLa nuclei.

Rat-1 fibroblasts = test: Nuclear phenotype of staurosporine-treated Rat-1 fibroblasts; type: cell-based; conditions: Neo cells; staurosporine 1 μM, 2 h
Source text: In Neo cells, staurosporine treatment leads to the generation of two phenotypes, one with partial chromatin condensation (˜80% of cells, stage I), and another with more advanced chromatin condensation and nuclear fragmentation (˜20% of cells, stage II), as identified by phase contrast microscopy or counter-staining with Hoechst 33342 (not shown). Arrow heads are placed in the center of the nucleus.
Specifically, Rabbit antiserum was generated against a mixture of 3 peptides derived from the mAIF amino acid sequence (amino acid nos. 151-170, 166-185, 181-200, coupled to KLH). This antiserum (ELISA titer ˜10.000) was used in immunoblots (1/2000) and on paraformaldehyde/picrylic acid-fixed [Bossy-Wetzel et al., EMBO J. 17:37-49 (1998)] […] Cytochrome c was detected by immunofluorescence (mAb 6H2.B4 from Pharmingen) in fixed Rat-1 cells transfected with a control vector (Neo) or with human Bcl-2 [Zhu et al., EMBO J. 15:4130-4141 (1996)] as described [Bossy-Wetzel et al., EMBO J. 17, 37-49 (1998)], whereas the DYm sensitive dye CMXRos (100 nM, red fluorescence) was used on live cells [Marzo et al., Science 281, 2027-2031 (1998)]. Cells were counterstained with the Hoechst 33342 dye (1 μM, blue fluorescence). […]

Jurkat cells = test: Transfection-enforced AIF overexpression in Jurkat cells; type: cell-based; conditions: 24 hours after transfection
Method: Jurkat cells were transiently transfected with pcDNA3.1 vector only (control) or mouse AIF cDNA (under the control of a cytomegalovirus promoter, see pcDNA3.1 vector from Invitrogen). After 24 hours of culture, cells were stained with the indicated fluorochromes to determine the frequency of apoptosis-associated alterations: loss of DYm (fluorochrome: DiOC(6)3), phosphatidylserine exposure (fluorochrome: Annexin V-FITC), or loss of nuclear DNA (fluorochrome: propidium iodide, PI, after ethanol permeabilization). Numbers refer to the percentage of cells bearing apoptotic characteristics. Results are representative of 3 different experiments.
as §2

For O=C(O)CN(CCN(CC(=O)O)CC(=O)O)CC(=O)O [EDTA], which “inhibition of AIF-induced large-scale DNA fragmentation” value (HeLa nuclei) is on record?
Its value is “inhibited”.

For COC(=O)C[C@H](NC(=O)[C@H](C)NC(=O)[C@@H](NC(=O)OCc1ccccc1)C(C)C)C(=O)CF [Z-VAD.fmk] (Cbz-Val-Ala-Asp(OMe)-CH2F), which “prevention of AIF effects on isolated nuclei or on mitochondria” value [1] is on record?
The value was “None of these AIF effects, either on isolated nuclei or on mitochondria, is prevented”.

And the “inhibition of caspase-substrate-cleaving activity in supernatant of mitochondria treated with AIF plus cytosol” value (caspase)?
The value was “Z-VAD.fmk-inhibitable”.

And the “inhibition of effects mediated by microinjected AIF” value (Rat-1 cells [2])?
Its value is “None of the effects mediated by microinjected AIF is inhibited”.

What about the “prevention of cytochrome c-induced apoptosis” value (Rat-1 cells [2]; microinjected cytochrome c) of the same molecule?
The value was “succeeds in preventing cytochrome c-induced, caspase-dependent apoptosis”.

And the “inhibition of AIF-induced release of caspase-9” value (isolated mitochondria)?
Its value is “does not inhibit the release of caspase-9 but rather interferes with its proteolytic activation”.

How did the “retention of DYm-sensitive dye CMXRos by cells” value (Rat-1 cells [3]) turn out when C=C1[C@@H]2CC[C@H]3[C@]4(C)C[C@H](O[C@@H]5O[C@H](CO)[C@@H](OS(=O)(=O)O)[C@H](OS(=O)(=O)O)[C@H]5OC(=O)CC(C)C)C[C@@H](C(=O)O)[C@H]4CC[C@]3(C2)[C@H]1O [atractyloside] was run?
Its value is “do not retain the DYm-sensitive dye CMXRos”.

And the “release of 57 kDa AIF protein from mitochondria” value (from here on “release of 57 kDa AIF protein”) (mouse liver mitochondria)?
Its value is “released upon PT pore opening”.

For [Ca+2] [calcium], which “release of 57 kDa AIF protein” value (mouse liver mitochondria) is on record?
The value was “released upon PT pore opening”.

Which “inhibition of AIF-induced large-scale DNA fragmentation” value (HeLa nuclei) does the source give for O=S(=O)(O)c1cc[c]([Hg][Cl])cc1 [p-chloromercuryphenylsulfonic acid] here?
The value was “inhibited”.

Which “retention of DYm-sensitive dye CMXRos by cells” value (Rat-1 cells [3]) does the source give for CN[C@@H]1C[C@H]2O[C@@](C)([C@@H]1OC)n1c3ccccc3c3c4c(c5c6ccccc6n2c5c31)C(=O)NC4 [staurosporine] here?
Its value is “do not retain the DYm-sensitive dye CMXRos”.

And the “cells with more advanced chromatin condensation and nuclear fragmentation (stage II)” value (Rat-1 fibroblasts)?
The value was ~20 % of cells.

And the “cells with partial chromatin condensation (stage I)” value (Rat-1 fibroblasts)?
The value was ~80 % of cells.

Which “release of 57 kDa AIF protein” value (mouse liver mitochondria) does the source give for CC(C)(C)OO [tert-butylhydroperoxide] here?
Its value is “released upon PT pore opening”.

With “immunogenic peptides: 3 peptides derived from the mAIF amino acid sequence (amino acid nos. 151-170, 166-185, 181-200) (peptide 1 LLIGGGTAAFAAARSIRARD; peptide 2 IRARDPGARVLIVSEDPELP; peptide 3 DPELPYMRPPLSKELWFSDD)” as the molecule, how does the “inhibitory effect of AIF-specific antibody when co-injected with excess immunogenic peptides” value (Rat-1 cells [3]; 100 μM AIF-derived immunogenic peptides) read?
Its value is “No such inhibitory effect is observed”.

B1: wild type AIF: AIF overexpressed in Jurkat cells by transient transfection of mouse AIF cDNA in pcDNA3.1 (protein, UniProt Q9Z0X1 1-612, looked up)
chain: MFRCGGLAGAFKQKLVPLVRTVYVQRPKQRNRLPGNLFQQWRVPLELQMARQMASSGSSGGKMDNSVLVLIVGLSTIGAGAYAYKTIKEDQKRYNERVMGLGLSPEEKQRRAIASATEGGSVPQIRAPSHVPFLLIGGGTAAFAAARSIRARDPGARVLIVSEDPELPYMRPPLSKELWFSDDPNVTKTLQFRQWNGKERSIYFQPPSFYVSAQDLPNIENGGVAVLTGKKVVHLDVRGNMVKLNDGSQITFEKCLIATGGTPRSLSAIDRAGAEVKSRTTLFRKIGDFRALEKISREVKSITVIGGGFLGSELACALGRKSQASGIEVIQLFPEKGNMGKILPQYLSNWTMEKVKREGVKVMPNAIVQSVGVSGGRLLIKLKDGRKVETDHIVTAVGLEPNVELAKTGGLEIDSDFGGFRVNAELQARSNIWVAGDAACFYDIKLGRRRVEHHDHAVVSGRLAGENMTGAAKPYWHQSMFWSDLGPDVGYEAIGLVDSSLPTVGVFAKATAQDNPKSATEQSGTGIRSESETESEASEITIPPSAPAVPQVPVEGEDYGKGVIFYLRDKVVVGIVLWNVFNRMPIARKIIKDGEQHEDLNEVAKLFNIHED
modifications: full-length
How did the “apoptosis-associated alterations after AIF overexpression” value (Jurkat cells) turn out when B1 was run?
The value was “induces DYm collapse, phosphatidylserine exposure, and hypoploidy”.
